Experiments:
[1] = tested on: VSV pseudotyped with the SARS-CoV-2 Wuhan-Hu-1 S; assay: organism not typed; type: cell-based; conditions: for antiviral activity (reduction of viral entry) versus cellular toxicity: VSVΔG-SWh in VeroE6 cells, various concentrations; for EC50: Vero C1008, read-out: EC50 (concentration reducing infection by VSV pseudotyped with the SARS-CoV-2 Wuhan-Hu-1 S by 50%)
in vitro = conditions: African green monkey
[2] = tested on: SARS-CoV-2 in A549-ACE2 cells; type: cell-based; conditions: 24 h, compounds 20 μM, remdesivir 30 μM
[3] = tested on: VSV pseudotyped with SARS-CoV-2 Delta Spike; type: cell-based; conditions: dose response
[4] = tested on: SARS-CoV-2 in VeroE6-TMPRSS2 cells; type: cell-based; conditions: 24 h, compounds 20 μM, remdesivir 30 μM
[5] = tested on: VSV pseudotyped with SARS-CoV-2 Omicron BA.1 Spike; type: cell-based; conditions: dose response
[6] = tested on: VSV pseudotyped with SARS-CoV-1 Spike; type: cell-based

Row | SMILES | antiviral activity (reduction of viral entry) versus cellular toxicity [1] | EC50 [1] [µM] | CC50 (in vitro) [µM] | virus production after SARS-CoV-2 infection [2] | inhibition of infection by VSV pseudotyped with SARS-CoV-2 Delta Spike [3] | virus production after SARS-CoV-2 infection [4] | inhibition of infection by VSV pseudotyped with SARS-CoV-2 Wuhan Spike ([1]; dose response) | inhibition of infection by VSV pseudotyped with SARS-CoV-2 Omicron BA.1 Spike [5] | inhibition of infection by VSV pseudotyped with SARS-CoV-1 Spike [6]
1 | C=C1CC[C@H](O)C/C1=C/C=C1\CCC[C@]2(C)[C@@H]([C@H](C)CCCC(C)(C)O)CC[C@@H]12 [calcifediol] | antiviral activity could not be separated from toxicity | 6.13 ± 3.52 | 16.8 ± 0.5 |  |  |  |  |  | 
2 | C=C1CC[C@H](O)C/C1=C/C=C1\CCC[C@]2(C)[C@@H]([C@H](C)CCCC(C)C)CC[C@@H]12 [cholecalciferol] | showed antiviral activity in the absence of toxicity | 14.8 ± 4.11 | 83.7 ± 6.12 |  |  |  |  |  | 
3 | CC(C)c1c(CN(C)C(C)Cc2ccccc2)n(C)n(-c2ccccc2)c1=O (stereo not shown) [famprofazone] | showed antiviral activity in the absence of toxicity | 7.64 ± 4.55 | 79 ± 2.75 | statistically significant reduction of virus production |  |  |  |  | 
4 | CCCCCCCCc1ccc(CCC(N)(CO)CO)cc1 [fingolimod] | showed antiviral activity in the absence of toxicity | 7.12 ± 2.25 | 20.4 ± 19.6 | statistically significant reduction of virus production | dose-dependent reduction | significant reduction | dose-dependent reduction | dose-dependent reduction | dose-dependent reduction
5 | CC[N+](C)(CC)CCOC(=O)C(O)(c1ccccc1)C1CCCCC1 (stereo not shown) [oxyphenomium] | could not be observed |  |  |  |  |  |  |  | 
6 | CCC(CC)COC(=O)[C@H](C)N[P@](=O)(OC[C@H]1O[C@@](C#N)(c2ccc3c(N)ncnn23)[C@H](O)[C@@H]1O)Oc1ccccc1 [remdesivir] |  |  |  | reduced viral replication significantly |  | reduced viral replication significantly |  |  | 

Reference: publication PMC12423841 (ACS Omega, 2025)
